According to PMC10564737, “Structure-based design of a phosphotyrosine-masked covalent ligand targeting the E3 ligase SOCS2” (Nature Communications, 2023):
Where “and” joins values, the source holds several entries; their conditions need not be identical. Equal values may be shown once. Entries after “also recorded” stand apart in the source; their conditions may differ. Read-outs that look alike come from different tables or passages of the source.

Columns and labels:
[1] = target: T1, HiBiT-SOCS2 fusion in HeLa cells (Homo sapiens, UniProt O14508); assay: Split-NanoLuc CETSA, permeabilised cell format; format: cell-based
T1 construct: encoding SOCS2 (32–198) in pBiT3.1-N expression vector; expressed in transfected cells; host or cells: HeLa
T1 sequence (Q15370 whole entry, one chain of several, further chain, the tested form may be a part): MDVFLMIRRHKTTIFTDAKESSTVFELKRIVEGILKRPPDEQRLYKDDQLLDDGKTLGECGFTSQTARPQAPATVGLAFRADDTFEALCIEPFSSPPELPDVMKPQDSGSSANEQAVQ
T1 sequence (Q15369 whole entry, one chain of several, further chain, the tested form may be a part): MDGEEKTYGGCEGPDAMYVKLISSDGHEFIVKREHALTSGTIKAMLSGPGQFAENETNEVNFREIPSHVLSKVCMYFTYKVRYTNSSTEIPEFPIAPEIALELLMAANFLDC
Method: One of the challenges with small-molecule binders displaying on-target activity with recombinant proteins, is to translate their utility to a cellular context. […] One of the advantages of CETSA is that target engagement can be monitored without the need for the development of a cell-permeable tracer molecule.
To test the cellular activity of MN551, we treated HeLa cells with 50 μM MN551 for 20 h and performed CETSA in a live-cell mode. We observed a small Tagg shift of 2 °C in live mode, which increased to 3–4 °C Tagg shift in the permeabilised format (Fig. 4d). We postulate that this observation could likely be a result of the low cellular permeability of MN551 owing to its negatively charged phosphate group.
N-terminal HiBiT-SOCS2 fusion was generated by encoding SOCS2 (32–198) in pBiT3.1-N expression vector (Promega). The transfection and target engagement assay were performed by modifying a NanoLuc target engagement protocol (Promega) with some small modifications. Briefly, HiBiT-SOCS2 fusion construct was transfected into HeLa cells using FuGENE HD (Promega) according to the manufacturer’s protocol. HiBiT-SOCS2 fusion construct was diluted into Transfection Carrier DNA (Promega) at a mass ratio of 1:100 or 1:10 for permeabilised and live-cell CETSA respectively. FuGENE HD was added at a ratio of 1:3 (μg DNA: μL FuGENE HD). 1 part (vol) of FuGENE HD complexes thus formed were combined with 20 parts (vol) of HeLa cells suspended at a density of 2 × 10^5 cells/mL, followed by incubation in a humidified, 37 °C + 5% CO2 incubator. After 20 h of incubation HeLa cells were detached and resuspended at a density of 2.5 × 10^5 cells/mL in Opti-MEM media without serum or phenol red but supplemented with protease inhibitor cocktail (Roche). […] Luminescence was recorded with GloMax Discover Microplate Reader (Promega). To generate apparent Tagg curves, the data is first converted to percent stabilized by relating the observed luminescence to the luminescence of the lowest temperature (40 °C) for that given sample. […]

SOCS2 [2] = target: T2, SOCS2 (Homo sapiens, UniProt O14508); assay: SOCS2 pulldown with biotinylated GHR_pY595 peptide from K562 cell lysates preincubated with compound; format: biochemical
T2 construct: endogenous SOCS2 from K562 lysates; endogenous in cells; host or cells: K562
T2 sequence (O14508 1-198): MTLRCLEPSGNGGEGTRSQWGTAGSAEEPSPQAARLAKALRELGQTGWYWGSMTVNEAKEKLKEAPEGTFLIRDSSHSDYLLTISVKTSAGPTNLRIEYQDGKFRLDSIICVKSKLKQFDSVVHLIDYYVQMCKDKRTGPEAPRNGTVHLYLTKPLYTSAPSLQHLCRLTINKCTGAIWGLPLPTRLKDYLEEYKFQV
Method: (§1) Pulldown of cellular SOCS2 was abrogated when K562 cells were pre-treated for 6 h with MN714 prior to cell lysis, further evidencing the inhibitor cell permeability and specific target engagement (Fig. 6c).
(§2) K562 cells were treated with either DMSO or 10 µM MN714 for 6 h before being lysed. For experiments with MN551, DMSO-treated lysate was used. DMSO-treated K562 lysate (1 mg/ml) was pre-cleared using control agarose beads (Pierce Control Agarose Resin, 26150) which were washed thrice using 50 mM Tris pH 7.4, 150 mM NaCl buffer. […] Unbound peptide was washed off through 3× cycles of buffer wash and spin. Beads were resuspended to a total volume of 100 µl per IP sample. 100 µl beads with immobilized peptides was added to the MN551 lysate tubes. Samples were incubated for 40 min at room temperature. Samples were spun and unbound supernatant was removed. Beads were washed 3× with 0.05% NP40, 50 mM Tris pH 7.4, 150 mM NaCl buffer before being resuspended in 35 µl 1× LDS. Samples were heated for 10 min at 95 °C after which the elute was transferred to a fresh tube. 20 µl of each sample was analyzed by Western Blot (4-12% Bis-Tris gel 180 V, 60 mins) before blotting for SOCS2 (ab109245, 1:1000 dilution) overnight at 4 °C. Uncropped blot images collected with ChemiDoc Touch imaging system (BioRad) operated by Image Lab (v2.4.0.03) and antibody validation provided in Source Data. […]

SOCS2 [3] = target: T2, SOCS2; assay: SOCS2 pulldown with biotinylated GHR_pY595 peptide from K562 cells pre-treated with compound; format: cell-based; conditions: K562 cells pre-treated with 10 µM for 6 h
Method: as §1, §2

Row | Structure (SMILES) | EC50 ([1]; MN551 CETSA dose response, Mean, read-out: EC50) | EC50 ([1]; MN551 CETSA dose response, single replicates, read-out: EC50, individual replicates n1-n2) | EC50 ([1]; permeabilised CETSA, 1 hr, mean ± SEM, n = 2, read-out: EC50 of Tagg shift) | IC50 (SOCS2 [2]; K562 cell lysates, mean ± SEM, technical replicates = 2, read-out: IC50 of reduction of SOCS2 pulled down with biotinylated GHR pY595) | IC50 (SOCS2 [2]; K562 lysates, version shown in the peer review file, read-out: apparent IC50 of blockade of SOCS2 pull-down) | pulldown of cellular SOCS2 with GHR pY595 peptide (SOCS2 [3])
1 | O=C(CCl)Nc1cccc(CNC(=O)[C@H](Cc2ccc(OP(=O)(O)O)cc2)NC(=O)Cc2ccc(F)cc2)c1 [MN551] | 1.01 µM | 0.755 µM and 1.26 µM | 1 ± 0.25 µM | 5.9 ± 2.6 µM | 9 µM | 
2 | CC(C)(C)C(=O)OCOP(=O)(OCOC(=O)C(C)(C)C)Oc1ccc(C[C@H](NC(=O)Cc2ccc(F)cc2)C(=O)NCc2cccc(NC(=O)CCl)c2)cc1 [MN714] |  |  |  |  |  | abrogated; also recorded: effective blockade of SOCS2-GHRpY interaction
